The values that follow come from patent US8614236B2 (University of Washington, priority 2006, dated 2013).

The subject of test [1] is PASMCs. Kind of test: Changes in membrane potential (Em) in PASMCs, DiBAC4(3) fluorescence. Format: cell-based, rat. The following applies: agent alone; for increase in DiBAC4(3) fluorescence: KCl 60 mM, ET-1 10^−8 M. As to the method:
(§1) The method for obtaining single PASMCs has been described previously in Shimoda L. A., et al., Am J Physiol 274: 842-853 (1998), which is hereby incorporated by reference in its entirety. Intrapulmonary arteries (200-600 μm o.d.) were isolated from male Wistar rats (250-350 g) and cleaned of connective tissue. After the lumen was gently rubbed with a cotton swab to remove the endothelial cells, the arteries were allowed to recover for 30 minutes in cold (4° C.) HBSS containing (in mM): 130 NaCl, 5 KCl, 1.2 MgCl2, 1.5 CaCl2, 10 N-[2-hydroxyethyl]piperazine-N′-[2-ethanesulfonic acid] (HEPES) and 10 glucose, with pH adjusted to 7.2 with 5 M NaOH, followed by 20 minutes in reduced-Ca^2+ (20 μM CaCl2) HBSS at room temperature. The tissue was enzymatically digested in reduced-Ca^2+ HBSS containing collagenase (type I; 1750 U/ml), papain (9.5 U/ml), bovine serum albumin (2 mg/ml) and dithiothreitol (1 mM) at 37° C. for 20 minutes. Following digestion, single smooth muscle cells were dispersed by gentle trituration with a wide-bore transfer pipette in Ca^2+-free HBSS and the cell suspension was placed on 25 mm glass cover slips. PASMCs were transiently cultured in Ham's-F-12 media supplemented with 0.5% fetal bovine serum and 1% penicillin/streptomycin for 24-48 hrs. before study.
Changes in membrane potential were measured using the fluorescence dye, DiBAC4(3), which was excited at 490 nm and detected at 510 nm. Cells were loaded by continuous perfusion with Kreb's solution containing 500 nM DiBAC4(3) and were perfused for at least 15 minutes before beginning measurements to insure stable uptake of dye. Baseline DiBAC4(3) fluorescence was monitored for 5 minutes with control Kreb's, followed by 10 minutes with Kreb's in the presence or absence of AZ (100 μM). At the end of this period, cells were challenged with KCl (60 mM) or endothelin-1 (ET-1) (10^−8 M). Since DiBAC4(3) is a single wavelength dye, any change in the concentration of the dye in the perfusion medium (i.e., differing concentrations between perfusion reservoirs) could result in a change in fluorescence that is not due to a change in membrane potential. To minimize the possibility of this type of error, all experiments were performed using inflow from a single reservoir into which AZ, KCl or ET-1 were dissolved directly.
AZ has recently been proposed to alter the activation of Ca^2+-activated K^+ channels, causing hyperpolarization. See Pickkers P., et al., Br J Pharmacol 132: 443-450 (2001); Tricarico D., et al., Ann Neurol 48: 304-312 (2000); and Tricarico D., et al., Faseb J 18: 760-761 (2004), which are hereby incorporated by reference in their entirety. Since depolarization is believed to contribute to the hypoxia-induced increase in [Ca^2+]i, AZ-induced hyperpolarization could prevent activation of voltage-gated Ca^2+ channels and an increase in [Ca^2+]i in response to hypoxia. In order to test this possibility, the Em-sensitive fluorescent dye, DiBAC4(3) was used. […] Baseline fluorescence was relatively stable over time, decreasing by 4.11±0.4% over 10 minutes (n=90 cells).

Test [2] concerns PASMCs. Kind of test: Basal intracellular Ca2+ concentration in PASMCs (Fura-2). It is filed as cell-based, rat. As to the method: as §1, with “Intrapulmonary” for “The method for obtaining single PASMCs has been described previously in Shimoda L. A., et al., Am J Physiol 274: 842-853 (1998), which is hereby incorporated by reference in its entirety. Intrapulmonary”, “The tissue was enzymatically digested in reduced-Ca^2+ HBSS containing collagenase (type I; 1750 U/ml), papain (9.5 U/ml), bovine serum albumin (2 mg/ml) and dithiothreitol (1 mM) at 37° C. for 20 minutes.” left out
(§2) Acute hypoxia increases intracellular [Ca^2+] in pulmonary arterial smooth muscle by enhancing capacitative Ca^2+ entry. […] Ratiometric measurement of fluorescence from the dye was performed on a workstation (Intracellular Imaging Inc, Cincinnati, Ohio) consisting of a Nikon TSE 100 Ellipse inverted microscope with epi-fluorescence attachments. The light beam from a xenon arc lamp was filtered at 340 and 380 nm, and focused onto the PASMCS under examination via a 20× fluorescence objective (Super Fluor 20, Nikon). Light emitted from the cell at 510 nm was returned through the objective and detected by a cooled CCD imaging camera. An electronic shutter (Sutter Instruments) was used to minimize photobleaching of dye. Protocols were executed and data collected on-line with InCyte software (Intracellular Imaging Inc). [Ca^2+]i was estimated from in vitro calibration solutions.

The subject of test [3] is PASMCs. The test can be described thus: Hypoxia-induced increase in [Ca2+]i in PASMCs (4% O2). Format: cell-based, rat. As to the method:
as §1, with “Intrapulmonary” for “The method for obtaining single PASMCs has been described previously in Shimoda L. A., et al., Am J Physiol 274: 842-853 (1998), which is hereby incorporated by reference in its entirety. Intrapulmonary”, “The tissue was enzymatically digested in reduced-Ca^2+ HBSS containing collagenase (type I; 1750 U/ml), papain (9.5 U/ml), bovine serum albumin (2 mg/ml) and dithiothreitol (1 mM) at 37° C. for 20 minutes.” left out
as §2

The test system of test [4] is PASMCs. The test can be described thus: KCl-induced Ca2+ responses in PASMCs. It is filed as cell-based, rat. Particulars: 100 μM. As to the method:
as §1, with “Intrapulmonary” for “The method for obtaining single PASMCs has been described previously in Shimoda L. A., et al., Am J Physiol 274: 842-853 (1998), which is hereby incorporated by reference in its entirety. Intrapulmonary”, “The tissue was enzymatically digested in reduced-Ca^2+ HBSS containing collagenase (type I; 1750 U/ml), papain (9.5 U/ml), bovine serum albumin (2 mg/ml) and dithiothreitol (1 mM) at 37° C. for 20 minutes.” left out
as §2

Test [5] relates to PASMCs. The test can be described thus: Intracellular pH (pHi) in PASMCs (BCECF-AM). Format: cell-based, rat. As to the method:
as §1
pHi within PASMCs was monitored using the cell permeant pH sensitive dye 2′,7′-bis(carboxyethyl)-5(6)-carboxyflourescein (BCECF-AM). Cells were incubated with BCECF-AM for 60 min at 37° C. under an atmosphere of 21% O2-5% CO2. Cells were then washed with Kreb's solution for 15 min at 37° C. to remove extracellular dye and allow complete de-esterification of cytosolic dye. Cells were excited with light at 490 and 440 nm and light emitted from the cells was detected at 530 nm. The ratio of 490 to 440 nm emission was calculated and converted into pH values by performing a calibration curve after each experiment. PASMCs were subjected to a high K^+ buffer containing 10 μM nigericin, which allowed the cell to adopt the pH of the high K^+ buffer. Two high K^+/nigericin buffers were used to set pH to 6.5 or 7.5, pHi was estimated from in situ calibration after each experiment. Cells were perfused with a solution containing (in mM): 105 KCl, 1 MgCl2, 1.5 CaCl2, 10 glucose, 20 HEPES-Tris and 0.01 nigericin to allow pHi to equilibrate to external pH as in Quinn D. A., et al., Am J Respir Cell Mol Biol 5: 586-591 (1991), which is hereby incorporated by reference in its entirety. A two point calibration was created from fluorescence measured as pHi was adjusted with KOH from 6.5 to 7.5. Intracellular H^+ ion concentration ([H^+]i) was determined from pHi using the formula: pHi=−log ([H^+]i).

The test system of test [6] is carbonic anhydrase. Kind of test: Carbonic anhydrase inhibition. It is filed as biochemical. An excerpt:
Benzolamide (BZ) was obtained from Dr. Thomas H. Maren, University of Florida Department of Pharmacology.

“Also recorded” adds a separate entry of the source. Bridge positions count the residues as written; N and C are the ends. Ends that are not written are not given here.

Consider `[Cl-].[K+]` [KCl], for which the “increase in DiBAC4(3) fluorescence” value in test [1] was determined as 61.58±12.8%.
With “endothelin-1 (CSCSSLMDKECVYFCHLDIIW; disulfide 1-15, 3-11; ends not checked; UniProt P05305 53-73, looked up) [ET-1]”, the “increase in DiBAC4(3) fluorescence” value in test [1] is recorded as 75.6±13.4%.
Consider `CC(N/C(=N\C#N)Nc1ccncc1)C(C)(C)C` (stereo not drawn) [pinacidil], for which the “decrease in DiBAC4(3) fluorescence” value in test [1] (100 μM) turned out to be 19.76±3.3%.
As for `CNS(=O)(=O)c1nnc(NC(C)=O)s1` [N-Meth-AZ], in test [2] (100 μM, after 10 min of perfusion), the “basal [Ca^2+]i, Treatment” value was found to be 200.9 ± 11.3 nM. Also, the “basal [Ca^2+]i, Baseline” value in test [2] (before perfusion with the compound) turned out to be 193.4 ± 11.0 nM. Also, the “increase in [Ca^2+]i induced by hypoxia” value in test [3] (100 μM, control 141.1±32.2 nM) is 33.2 ± 17.4 nM. Besides, in test [3] (10-100 μM), the “effect on hypoxia-induced increase in [Ca^2+]i” value is listed as “markedly reduced; also recorded: prevented”. In addition, the “effect on KCl-induced increase in [Ca^2+]i” value in test [4] is recorded as “similar”. In test [5] (100 μM), the “basal pHi, Treatment” value was determined as 7.12±0.01 and the “effect on basal pHi” value is given as “no significant effect; also recorded: minimal effect”. Also, the “basal pHi, Baseline” value in test [5] (before the compound) was 7.13±0.02. The “CA inhibiting action” value in test [6] is on record as “no CA inhibiting action”.
